From ChEMBL document CHEMBL1143998, “Binding to human serum albumin of zidovudine (AZT) and novel AZT derivatives. Experimental and theoretical analyses” (Bioorg Med Chem, 2008)

Experiments:
Type in all cases: ADME
Details in all cases: isolated protein
Albumin [1] = biological target: T1, Albumin (Homo sapiens, UniProt P02768); test: Binding affinity to defatted human serum albumin
Albumin [2] = biological target: T1, Albumin; test: Binding affinity to defatted human serum albumin relative to zidovudine
Albumin [3] = biological target: T1, Albumin; test: Binding affinity to defatted human serum albumin in presence of salicylic acid
Albumin [4] = biological target: T1, Albumin; test: Binding affinity to fatty acid complexed human serum albumin

T1 sequence (P02768 whole entry): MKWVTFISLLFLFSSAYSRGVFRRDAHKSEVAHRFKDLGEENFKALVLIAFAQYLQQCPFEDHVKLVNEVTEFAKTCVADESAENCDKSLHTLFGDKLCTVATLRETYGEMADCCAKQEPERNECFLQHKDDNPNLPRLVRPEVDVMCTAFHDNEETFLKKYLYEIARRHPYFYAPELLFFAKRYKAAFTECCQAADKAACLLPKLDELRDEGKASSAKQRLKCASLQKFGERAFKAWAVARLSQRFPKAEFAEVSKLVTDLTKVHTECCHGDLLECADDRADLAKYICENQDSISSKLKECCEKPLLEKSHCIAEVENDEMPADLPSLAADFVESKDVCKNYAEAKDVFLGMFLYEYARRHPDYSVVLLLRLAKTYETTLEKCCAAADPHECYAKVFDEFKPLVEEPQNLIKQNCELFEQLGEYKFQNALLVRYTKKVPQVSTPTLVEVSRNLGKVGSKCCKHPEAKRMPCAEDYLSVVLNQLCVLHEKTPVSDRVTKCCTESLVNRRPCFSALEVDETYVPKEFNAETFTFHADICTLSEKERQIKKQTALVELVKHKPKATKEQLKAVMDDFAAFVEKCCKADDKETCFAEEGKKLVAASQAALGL

Activity (Albumin [1])	Ka (Albumin [1])	Activity (Albumin [2])	Activity (Albumin [3])	Ka (Albumin [3])	Activity (Albumin [4])	Ka (Albumin [4])	SMILES
47%	6201.3 L/mol	5.93	7%	604.5 L/mol	10.4%	811.7 L/mol	Cc1cn([C@H]2C[C@H](N=[N+]=[N-])[C@@H](COC(=O)C(=O)O)O2)c(=O)[nH]c1=O
17.4%	1535 L/mol	1.47	15.2%	1312.6 L/mol	11.9%	944.6 L/mol	Cc1cn([C@H]2C[C@H](N=[N+]=[N-])[C@@H](COC(=O)C(=O)N[C@H](C(=O)O)C(C)C)O2)c(=O)[nH]c1=O
13.6%	1174.4 L/mol	1.12	8.3%	716.7 L/mol	5.5%	436.6 L/mol	Cc1cn([C@H]2C[C@H](N=[N+]=[N-])[C@@H](COC(=O)C(=O)N[C@@H](Cc3ccccc3)C(=O)O)O2)c(=O)[nH]c1=O
35.2%	3765.4 L/mol	3.6	4.6%	397.2 L/mol	7.6%	575.2 L/mol	CC[C@H](C)[C@H](NC(=O)C(=O)OC[C@H]1O[C@@H](n2cc(C)c(=O)[nH]c2=O)C[C@@H]1N=[N+]=[N-])C(=O)O
26.5%	2457 L/mol	2.35	5.2%	449 L/mol	8.9%	683.2 L/mol	Cc1cn([C@H]2C[C@H](N=[N+]=[N-])[C@@H](COC(=O)C(=O)N[C@@H](CC(C)C)C(=O)O)O2)c(=O)[nH]c1=O

Further lines, the compound ahead of its results:

SMILES	Activity (Albumin [1])	Ka (Albumin [1])	Activity (Albumin [2])	Activity (Albumin [3])	Ka (Albumin [3])	Activity (Albumin [4])	Ka (Albumin [4])
Cc1cn([C@H]2C[C@H](N=[N+]=[N-])[C@@H](COC(=O)C(=O)N3CCC[C@H]3C(=O)O)O2)c(=O)[nH]c1=O	11.9%	944.6 L/mol	0.9	9.4%	811.7 L/mol	16.1%	1341.9 L/mol
Cc1cn([C@H]2C[C@H](N=[N+]=[N-])[C@@H](COC(=O)c3ccncc3)O2)c(=O)[nH]c1=O	19.8%	1709.8 L/mol	1.64	–	–	38.8%	3277.3 L/mol
Cc1cn([C@H]2C[C@H](N=[N+]=[N-])[C@@H](COC(=O)C(=O)N[C@@H](Cc3ccc(O)cc3)C(=O)O)O2)c(=O)[nH]c1=O	14.9%	1224.4 L/mol	1.17	9.4%	811.7 L/mol	10.4%	890.9 L/mol
Cc1cn([C@H]2C[C@H](N=[N+]=[N-])[C@@H](COC(=O)C(=O)N[C@@H](Cc3c[nH]c4ccccc34)C(=O)O)O2)c(=O)[nH]c1=O	20.5%	1803.2 L/mol	1.73	17.6%	1519.8 L/mol	23.7%	2172.1 L/mol
